According to ChEMBL document CHEMBL5346915, “A practical "preTACs-cytoblot" platform accelerates the streamlined development of PROTAC-based protein degraders” (Eur J Med Chem, 2023):
Calls of active or inactive are those of the source. The calls are words filed in the database; no cut-off is given here.

How the values were obtained:
[1] = target: T1, von Hippel-Lindau disease tumor suppressor/Cyclin-dependent kinase 12 (Homo sapiens, UniProt P40337+Q9NYV4); test: PROTAC activity at VHL/CDK12 in human HeLa cells assessed as induction of CDK12 degradation measured after 24 hrs by fluorescence based cytoblot assay; type: cell-based
T1 sequence (P40337 whole entry): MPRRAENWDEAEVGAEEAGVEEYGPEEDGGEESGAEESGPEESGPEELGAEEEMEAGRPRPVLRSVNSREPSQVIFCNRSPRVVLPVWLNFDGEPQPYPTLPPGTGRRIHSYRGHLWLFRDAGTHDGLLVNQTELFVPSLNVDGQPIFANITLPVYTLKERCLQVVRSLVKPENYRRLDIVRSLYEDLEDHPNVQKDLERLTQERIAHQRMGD
T1 sequence (Q9NYV4 whole entry): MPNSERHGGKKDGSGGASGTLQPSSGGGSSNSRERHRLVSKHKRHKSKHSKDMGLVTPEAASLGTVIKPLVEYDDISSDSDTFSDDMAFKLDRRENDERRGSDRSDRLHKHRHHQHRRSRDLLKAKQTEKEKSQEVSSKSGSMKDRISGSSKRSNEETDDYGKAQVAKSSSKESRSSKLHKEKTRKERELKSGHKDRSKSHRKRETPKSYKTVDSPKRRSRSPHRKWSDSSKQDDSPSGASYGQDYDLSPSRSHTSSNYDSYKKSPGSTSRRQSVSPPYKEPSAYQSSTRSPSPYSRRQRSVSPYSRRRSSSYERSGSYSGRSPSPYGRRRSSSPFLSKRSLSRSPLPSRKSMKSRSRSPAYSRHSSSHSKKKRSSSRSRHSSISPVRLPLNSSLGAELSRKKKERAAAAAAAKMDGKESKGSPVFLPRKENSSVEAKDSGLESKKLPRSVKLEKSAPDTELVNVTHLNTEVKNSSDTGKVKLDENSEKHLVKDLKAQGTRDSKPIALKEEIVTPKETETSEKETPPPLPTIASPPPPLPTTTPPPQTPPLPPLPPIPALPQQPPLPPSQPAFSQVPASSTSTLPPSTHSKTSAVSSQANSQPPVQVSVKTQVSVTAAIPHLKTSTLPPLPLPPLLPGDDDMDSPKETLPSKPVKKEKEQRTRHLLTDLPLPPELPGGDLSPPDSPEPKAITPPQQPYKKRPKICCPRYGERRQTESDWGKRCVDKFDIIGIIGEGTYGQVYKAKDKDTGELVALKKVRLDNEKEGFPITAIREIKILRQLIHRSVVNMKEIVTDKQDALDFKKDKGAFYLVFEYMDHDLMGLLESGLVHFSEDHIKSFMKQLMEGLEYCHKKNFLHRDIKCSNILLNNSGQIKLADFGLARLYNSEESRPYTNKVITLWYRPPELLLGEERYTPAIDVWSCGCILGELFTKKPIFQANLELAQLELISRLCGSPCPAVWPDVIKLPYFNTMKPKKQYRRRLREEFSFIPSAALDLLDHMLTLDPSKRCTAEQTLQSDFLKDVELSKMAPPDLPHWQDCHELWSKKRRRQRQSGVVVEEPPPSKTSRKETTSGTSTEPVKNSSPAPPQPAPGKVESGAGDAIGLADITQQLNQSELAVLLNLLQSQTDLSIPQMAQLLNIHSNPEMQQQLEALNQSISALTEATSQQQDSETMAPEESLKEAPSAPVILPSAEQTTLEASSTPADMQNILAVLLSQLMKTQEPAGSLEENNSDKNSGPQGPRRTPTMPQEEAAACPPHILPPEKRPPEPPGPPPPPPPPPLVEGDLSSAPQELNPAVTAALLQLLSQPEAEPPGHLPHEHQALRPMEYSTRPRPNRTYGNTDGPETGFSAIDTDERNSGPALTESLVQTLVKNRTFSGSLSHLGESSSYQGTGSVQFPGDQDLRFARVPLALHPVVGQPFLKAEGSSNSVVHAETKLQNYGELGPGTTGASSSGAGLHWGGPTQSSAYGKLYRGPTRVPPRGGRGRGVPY

[2] = target: T1, von Hippel-Lindau disease tumor suppressor/Cyclin-dependent kinase 12; test: PROTAC activity at VHL/CDK12 in human HeLa cells assessed as induction of CDK12 degradation measured after 24 hrs by Western blotting analysis; type: cell-based
MDA-MB-231 [3] = test: Synergistic antiproliferative activity against human MDA-MB-231 cells assessed as combination index at 500 nM incubated for 14 days in presence of olaparib by sulforhodamine B staining based Chou-Talalay method; type: functional; conditions: time 14 day
HCT-116 = test: Antiproliferative activity against human HCT-116 cells assessed as inhibition of cell growth measured after 96 hrs by SRB assay; type: functional, cell-based; conditions: HCT-116, 96 h
HeLa = test: Antiproliferative activity against human HeLa cells assessed as inhibition of cell growth measured after 96 hrs by SRB assay; type: functional, cell-based
[4] = Cytotoxicity against human L02 cells assessed as inhibition of cell growth measured after 96 hrs by SRB assay; type: toxicity, cell-based
Bel-7402 = test: Antiproliferative activity against human Bel-7402 cells assessed as inhibition of cell growth measured after 96 hrs by SRB assay; type: functional, cell-based; conditions: Bel-7402, 96 h
MDA-MB-231 [5] = test: Antiproliferative activity against human MDA-MB-231 cells assessed as inhibition of cell growth measured after 96 hrs by SRB assay; type: functional, cell-based; conditions: MDA-MB-231, 96 h
[6] = target: Protein cereblon/Cyclin-dependent kinase 12 (Homo sapiens) (UniProt Q9NYV4+Q96SW2); test: PROTAC activity at CRBN/CDK12 in human HeLa cells assessed as induction of CDK12 degradation measured after 24 hrs by fluorescence based cytoblot assay; type: cell-based
Sequence of Protein cereblon/Cyclin-dependent kinase 12 (Homo sapiens) (Q96SW2 whole entry, looked up): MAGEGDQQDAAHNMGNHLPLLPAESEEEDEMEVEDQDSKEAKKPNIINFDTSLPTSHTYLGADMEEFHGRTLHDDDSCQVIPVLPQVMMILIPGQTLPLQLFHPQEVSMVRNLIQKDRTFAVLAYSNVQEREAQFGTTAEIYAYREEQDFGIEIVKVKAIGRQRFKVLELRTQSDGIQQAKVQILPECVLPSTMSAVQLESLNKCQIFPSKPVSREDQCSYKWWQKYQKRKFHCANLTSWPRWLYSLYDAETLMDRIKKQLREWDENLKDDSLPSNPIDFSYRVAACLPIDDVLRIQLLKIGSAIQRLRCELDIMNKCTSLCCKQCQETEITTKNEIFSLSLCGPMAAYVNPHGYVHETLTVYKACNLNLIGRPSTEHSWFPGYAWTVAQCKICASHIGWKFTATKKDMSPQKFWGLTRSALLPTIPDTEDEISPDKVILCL
Sequence of Protein cereblon/Cyclin-dependent kinase 12 (Homo sapiens) (Q9NYV4 whole entry, looked up): as the sequence (Q9NYV4 whole entry) above

Structure (SMILES) | DC50 [1] [nM] | DC50 [2] [nM] | IC50 (HCT-116) [nM] | IC50 (HeLa) [nM] | IC50 (Bel-7402) [nM] | IC50 (MDA-MB-231 [5]) [nM] | Activity [6] | CI (MDA-MB-231 [3]) | IC50 at 96 h [4] [nM]
CN(C)C/C=C/C(=O)Nc1ccc(C(=O)N2CCC[C@@H](Nc3ncc(Cl)c(-c4c[nH]c5ccccc45)n3)C2)cc1 | – | – | 89 | 106 | 650 | 133 | – | – | 119
CC(C)S(=O)(=O)c1ccccc1Nc1nc(N[C@@H]2CCCN(CCCCc3cn(CCCCCCCOc4ccc5c(c4)C(=O)N(C4CCC(=O)NC4=O)C5=O)nn3)C2)ncc1Cl (some centres not stated) | – | – | – | – | – | – | Active | – | –
CC(C)S(=O)(=O)c1ccccc1Nc1nc(N[C@@H]2CCCN(CCCCc3cn(CCCCCCCOc4cccc5c4C(=O)N(C4CCC(=O)NC4=O)C5=O)nn3)C2)ncc1Cl (some centres not stated) | – | – | – | – | – | – | Active | – | –

Further lines, with some results ahead:

DC50 [1] [nM] | DC50 [2] [nM] | IC50 (HCT-116) [nM] | IC50 (HeLa) [nM] | IC50 (Bel-7402) [nM] | IC50 (MDA-MB-231 [5]) [nM] | Activity [6] | Structure (SMILES) | CI (MDA-MB-231 [3]) | IC50 at 96 h [4] [nM]
57 | 83 | – | – | – | – | – | CC(C)S(=O)(=O)c1ccccc1Nc1nc(N[C@@H]2CCCN(CCCCCCCNC(=O)COc3cccc4c3C(=O)N(C3CCC(=O)NC3=O)C4=O)C2)ncc1Cl (some centres not stated) | – | –
74 | 85 | 665 | 316 | 491 | 468 | – | Cc1ncsc1-c1ccc([C@H](C)NC(=O)[C@@H]2C[C@@H](O)CN2C(=O)[C@@H](NC(=O)CCCCCCNC(=O)CN2CCC[C@@H](Nc3ncc(Cl)c(Nc4ccccc4S(=O)(=O)C(C)C)n3)C2)C(C)(C)C)cc1 | 0.17 | > 1000
